Data set [1] relates to Huh-7. Description: Antiproliferative activity against human Huh-7 cells assessed as reduction in ratio of EdU-positive cells measured after 24 hrs by EdU incorporation assay. It counts as functional, cell-based. As to conditions: dose 0.55-2.2 µM.
The subject of data set [2] is SK-HEP1. Description: Induction of ROS production in human SK-HEP1 cells assessed as increase in intracellular ROS level at 1.5 to 13.5 uM incubated for 24 hrs by DCFH-DA staining based fluorescence assay. The format is functional, cell-based. As to conditions: dose 1.5-13.5 µM.
A short description of data set [3]: Acute toxicity in BALB/c mouse assessed as change in body weight at 650 mg/kg, ip measured at day 2. It counts as organism-based. As to conditions: in vivo, 48 h, time 2 day.
For data set [4], the system named is Huh-7. Kind of data set: Induction of apoptosis in human Huh-7 cells assessed as increase in proportion of early apoptosis at 0.9 to 8.1 uM incubated for 24 hrs by Annexin V-AbFluor 488/propidium iodide staining based flow cytometry analysis. It counts as functional, cell-based. The settings on record: dose 0.9-8.1 µM.
In data set [5] the test system is SK-HEP1. Kind of data set: Induction of apoptosis in human SK-HEP1 cells assessed as cell membrane blebbing at 1.5 to 13.5 uM incubated for 24 hrs by giemsa staining based micrscopic analysis. The format is functional. As to conditions: dose 1.5-13.5 µM.

The source made the active and inactive calls. The calls are words filed in the database; no cut-off is given here.

Turning to `CC(=O)Oc1ccccc1/C=C/c1nccc2ccccc12`, the Activity result in the data set on Huh-7 [1] was “Dose-Dependent Effect”; in data set [3] it was “Toxic”. Besides, the result in the data set on SK-HEP1 [2], in the data set on Huh-7 [4] and with SK-HEP1 [5] was Active.

(Values after ChEMBL document CHEMBL5370544, “Design, synthesis, and biological evaluation of 1-styrenyl isoquinoline derivatives for anti-hepatocellular carcinoma activity and effect on mitochondria” (Eur J Med Chem, 2023).)
